Measurements as given in paper PMC11219871, “Epigenetic-based differentiation therapy for Acute Myeloid Leukemia” (Nature Communications, 2024).
≈ marks a conversion by molar mass, not a printed value. Where “and” joins values, the source holds several entries; their conditions need not be identical. Identical values can stand only once. Like-named read-outs stand apart in the source and are kept apart here.

Tests used:
HDAC8 = molecular target: T1, HDAC8 (Homo sapiens, UniProt Q9BY41); assay: HDAC assay (Eurofins); format: biochemical
T1 construct: purchased Eurofins (contracted assay service)
T1 sequence (Q9BY41 1-377): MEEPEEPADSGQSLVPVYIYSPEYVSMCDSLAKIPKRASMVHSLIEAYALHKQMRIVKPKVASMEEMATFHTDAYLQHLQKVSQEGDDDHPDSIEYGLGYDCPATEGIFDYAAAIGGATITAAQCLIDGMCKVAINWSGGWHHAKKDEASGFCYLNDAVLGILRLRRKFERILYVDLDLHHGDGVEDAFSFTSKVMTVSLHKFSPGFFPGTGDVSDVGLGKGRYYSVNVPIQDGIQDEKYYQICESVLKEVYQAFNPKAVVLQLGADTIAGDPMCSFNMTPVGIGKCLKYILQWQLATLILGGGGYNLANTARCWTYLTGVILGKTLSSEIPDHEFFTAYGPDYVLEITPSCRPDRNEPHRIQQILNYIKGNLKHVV

DNMT1 = DNMT1 (Homo sapiens, UniProt P26358); assay: Epigenetic panel (BPS Bioscience); DNMT1 TR-FRET IC50; format: biochemical
DNMT1, sequence (P26358 whole entry): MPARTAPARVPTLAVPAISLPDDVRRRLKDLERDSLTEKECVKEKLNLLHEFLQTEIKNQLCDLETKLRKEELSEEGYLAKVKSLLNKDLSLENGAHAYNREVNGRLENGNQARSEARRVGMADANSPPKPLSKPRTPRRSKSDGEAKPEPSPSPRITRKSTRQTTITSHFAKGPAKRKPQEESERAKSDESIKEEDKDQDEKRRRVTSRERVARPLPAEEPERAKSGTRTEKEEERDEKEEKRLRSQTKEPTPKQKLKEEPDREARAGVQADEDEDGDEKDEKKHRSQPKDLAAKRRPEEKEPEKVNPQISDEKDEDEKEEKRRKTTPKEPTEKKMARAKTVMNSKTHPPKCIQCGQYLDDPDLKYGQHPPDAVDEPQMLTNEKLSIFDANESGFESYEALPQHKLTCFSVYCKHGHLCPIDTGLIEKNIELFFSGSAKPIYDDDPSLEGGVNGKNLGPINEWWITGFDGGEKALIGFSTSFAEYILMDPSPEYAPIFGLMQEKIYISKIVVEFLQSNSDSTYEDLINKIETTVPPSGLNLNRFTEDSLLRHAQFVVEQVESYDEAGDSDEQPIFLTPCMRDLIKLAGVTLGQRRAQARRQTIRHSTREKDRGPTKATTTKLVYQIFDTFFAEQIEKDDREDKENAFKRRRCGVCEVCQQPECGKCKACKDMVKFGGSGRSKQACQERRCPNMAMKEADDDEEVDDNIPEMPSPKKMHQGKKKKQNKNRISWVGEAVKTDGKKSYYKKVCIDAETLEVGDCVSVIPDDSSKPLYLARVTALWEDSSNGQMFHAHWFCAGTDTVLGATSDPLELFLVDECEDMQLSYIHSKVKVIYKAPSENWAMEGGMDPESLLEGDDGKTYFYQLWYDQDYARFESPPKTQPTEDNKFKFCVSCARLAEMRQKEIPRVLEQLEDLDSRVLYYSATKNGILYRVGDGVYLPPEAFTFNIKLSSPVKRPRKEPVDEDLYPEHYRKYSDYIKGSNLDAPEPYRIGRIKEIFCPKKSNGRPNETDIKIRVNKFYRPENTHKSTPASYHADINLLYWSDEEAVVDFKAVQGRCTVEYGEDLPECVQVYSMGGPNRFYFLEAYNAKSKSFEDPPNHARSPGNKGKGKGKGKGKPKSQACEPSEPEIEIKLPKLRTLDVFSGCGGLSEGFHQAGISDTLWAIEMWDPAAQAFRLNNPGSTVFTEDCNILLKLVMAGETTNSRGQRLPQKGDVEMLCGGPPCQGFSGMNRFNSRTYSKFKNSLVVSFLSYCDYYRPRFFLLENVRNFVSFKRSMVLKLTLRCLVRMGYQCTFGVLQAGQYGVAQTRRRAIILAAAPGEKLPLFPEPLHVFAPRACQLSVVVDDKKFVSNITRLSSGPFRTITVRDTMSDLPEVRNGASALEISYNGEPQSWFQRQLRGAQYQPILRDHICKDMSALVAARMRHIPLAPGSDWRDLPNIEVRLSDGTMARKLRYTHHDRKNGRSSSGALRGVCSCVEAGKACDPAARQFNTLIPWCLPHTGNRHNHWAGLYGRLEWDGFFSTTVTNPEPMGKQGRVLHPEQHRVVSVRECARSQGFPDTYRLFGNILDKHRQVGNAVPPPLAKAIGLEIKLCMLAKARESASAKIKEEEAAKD
Description: DNMT1 and G9a IC50 values were measured using time-resolved fluorescence energy transfer assays, as described previously[18],[25],[26].
Binding experiments were performed in duplicate at a concentration of 10 μM.

HDAC11 = molecular target: T2, HDAC11 (Homo sapiens, UniProt Q96DB2); assay: HDAC11 Eurofins assay; format: biochemical
T2 sequence (Q96DB2 1-347): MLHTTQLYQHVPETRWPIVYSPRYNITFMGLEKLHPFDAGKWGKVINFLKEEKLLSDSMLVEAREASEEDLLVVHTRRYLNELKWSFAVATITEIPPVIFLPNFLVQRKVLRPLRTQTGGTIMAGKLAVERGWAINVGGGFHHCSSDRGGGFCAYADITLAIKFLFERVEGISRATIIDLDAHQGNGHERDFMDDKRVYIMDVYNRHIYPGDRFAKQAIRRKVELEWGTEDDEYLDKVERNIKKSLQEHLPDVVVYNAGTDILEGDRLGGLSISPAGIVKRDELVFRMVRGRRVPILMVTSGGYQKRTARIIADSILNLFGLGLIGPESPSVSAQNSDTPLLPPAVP

[1] = test system: MOLM-13 i.v. in BALB/cA Rag2-/-γc-/- mice; assay: Intravenous xenograft model (survival, CD11b in blood, body weight); format: in vivo, mouse
Kinetic solubility = format: physicochemical; settings: PBS buffer, aqueous buffer, kinetic from dmso stock, pH 7.4, PBS
Description: This study was conducted at Wuxi (http://www.wuxi.com/). Stock solutions of test compounds (10 mM; 100% DMSO) and 490 μL of PBS buffer at pH = 7.4 were added in the lower chamber of Whatman’s Mini-Uniprep vials. After vortex mixing for ≥2 min, the vials were shaken at 800 rpm for 24 h and finally centrifuged at 1520 g for 20 min. The concentration of the filtrate was quantified by HPLC (calibration curve from 1.5624 μM to 200 μM). Amiodarone hydrochloride, carbamazepine and chloramphenicol were used as controls.

[2] = test system: MV4-11 xenograft in BALB/cA Rag2-/-γc-/- mice; assay: Subcutaneous xenograft model (tumor volume, CD11b q-PCR, H3Ac, body weight); format: in vivo, mouse; settings: for Tumor volume: MV4-11 subcutaneous xenograft, in mm³; for Tumor volume / body weight of mice: individual mice; for body weight of mice: subcutaneous MV4-11 AML mouse model
Description: (§1) The subcutaneous xenograft models of ML-2 and MV4-11 derived cells, 5 × 10^6 and 10 × 10^6 cells, respectively, diluted in 100 µL of saline solution were subcutaneously inoculated in the back left flank of female BALB/cA Rag2^−/−γc^−/− mice. When tumors became palpable, the mice were randomized into three groups: vehicle, CM-444 and CM-1758, (eight animals/group). Treatment with 10 mg/kg of CM-444 or CM-1758 i.p. was started 4 days after injection when all mice presented subcutaneous tumors and was administered for 5 consecutive days followed by 2 resting days over 3 weeks for the ML-2 model or daily for 2 weeks for the MV4-11 model. The control group received only 80% saline solution, 10% DMSO […] 10% Tween 20 (diluents of CM-444 and CM-1758). Tumor size was analyzed every 2–3 days using the following method: […], where D and d corresponded to the longest and shortest diameter, respectively. The maximal tumor size/burden permitted by the Animal Care and Ethics Committee of the University of Navarra is 2000 mm^3. This maximal tumor size/burden was not exceeded in any case. ML-2 and MV4-11 tumors were explanted for differentiation and global histone acetylation analysis. Histones were extracted, and a western blot of H3Ac was performed as described above. For the differentiation study, RNA was extracted, and q-PCR of CD11b was performed as described above (CD11b sequence primer can be found in Supplementary Table 10).

[3] = test system: ML-2 xenograft in BALB/cA Rag2-/-γc-/- mice; assay: as above; format: in vivo, mouse; settings: for Tumor volume: ML-2 subcutaneous xenograft, individual mice (Fig 3B); for body weight of mice: subcutaneous ML-2 AML mouse model, individual mice
Description: as §1

Compound `COc1cc2nc(-c3ccc(C)o3)cc(NCC3CCN(c4ncc(C(=O)NO)cn4)CC3)c2cc1OC` [CM-444, 2-[4-[[[6,7-dimethoxy-2-(5-methyl-2-furyl)-4-quinolyl]amino]methyl]-1-piperidyl]pyrimidine-5-carbohydroxamic acid] has an IC50 (HDAC8) of 0.083 µM, an inhibition at 10 µM (HDAC8; 10 µM) of 100% and an inhibition at 10 µM (DNMT1; 10 µM) of 96%. For the same compound, the IC50 (DNMT1; as printed in Fig. 1B, read-out: IC50) was 2.2 µM, the IC50 (DNMT1; read-out: DNMT1 IC50) was 2.16 µM and the IC50 (HDAC11) was 0.14 µM. The “CD11b in blood samples” value ([1]; MOLM-13 i.v., 10 mg/kg i.p.) was “significant induction of CD11b”, the “CD11b (%)” value ([1]; blood samples of mice engrafted intravenously with MOLM-13 cells, individual mice) was 49.5% and 13.9% and 12.3% and 14% and 28.6% and 15.1% and 19.3% and 15% and 42.6% and 31.9% and 18% and 12.6% and the solubility at 24 h (Kinetic solubility) was 0.118 mg/mL (≈ 227 µM). For the same compound, the “CD11b expression in explanted tumors” value ([2]; MV4-11 s.c., 10 mg/kg i.p.) was “significant increase in CD11b expression”, the “H3Ac levels in tumors” value ([2]; MV4-11 s.c., 10 mg/kg i.p.) was “increase in H3Ac levels” and the tumor growth ([2]; MV4-11 s.c., 10 mg/kg i.p. daily, 2 weeks) was “very close to significance”. For the same compound, the Tumor volume ([2]; day 0) was 0, the Tumor volume ([2]; day 7) was 3.193 and the Tumor volume ([2]; day 9) was 111.805 and 139.808 and 128.905 and 58.5153 and 61.4614 and 71.8536 and 82.1349 and 57.0445 and 0 and 108.84. For the same compound, the Tumor volume ([2]; day 12) was 294.457 and 409.686 and 535.985 and 179.87 and 403.211 and 161.575 and 360.839 and 457.558 and 8.3776 and 264.463, the Tumor volume ([2]; day 14) was 459.841 and 410.79 and 840.745 and 257.398 and 607.597 and 355.301 and 487.51 and 302.43 and 18.6928 and 395.414 and the “Relative H3Ac/H3 total levels” value ([2]; after in vivo treatment, subcutaneous MV4-11 mouse model, western blot, individual tumors) was 0.9852 and 1.143 and 1.277 and 1.092 and 1.163 and 1.09. The “body weight of mice” value ([2]; day 1) was 21.9 and 20.2 and 23.1 and 24.4 (2×) and 23 and 20.9 and 24.3 and 21.3 and 23.6, the “body weight of mice” value ([2]; day 5, in g (unit assumed)) was 20.4 and 18.7 and 20.7 and 21.6 and 21.5 and 19 and 21.7 and 18.8 and 21.2 and 21 and the “body weight of mice” value ([2]; day 7) was 20.3 and 18.1 and 19.6 (2×) and 20.5 and 18.3 and 21.6 and 18.4 and 21 and 20.7. For the same compound, the “body weight of mice” value ([2]; day 9) was 20.7 (2×) and 19.1 (2×) and 20.2 and 19.2 and 20.4 (2×) and 18.9 and 20.6, the “body weight of mice” value ([2]; day 12) was 22.2 (2×) and 19.1 and 21.6 and 20 and 22.4 and 20.6 and 23 and 20.1 and 22.6 and the “body weight of mice” value ([2]; day 14) was 22.1 (2×) and 19.1 and 20.3 and 22.6 (3×) and 20.9 and 23.1 and 19.5. For the same compound, the “body weight of mice” value ([2]; day 16) was 21 (2×) and 19.6 and 22 and 21.9 and 20.1 and 24.8 and 20.6 and 22.3 (2×), the “CD11b expression, log10 (2-ΔΔCt)” value ([2]; tumors of the subcutaneous MV4-11 model, q-PCR, individual tumors) was 1.258 and 2.58 and 3.158 and 0.925 and the “CD11b expression in explanted tumors” value ([3]; ML-2 s.c., 10 mg/kg i.p.) was “significant increase in CD11b expression”. The “H3Ac levels in tumors” value ([3]; ML-2 s.c., 10 mg/kg i.p.) was “increase in H3Ac levels”, the tumor growth ([3]; ML-2 s.c., 10 mg/kg i.p., 5 days on/2 off, 3 weeks) was “inhibited tumor growth significantly” and the Tumor volume ([3]; day 0, in mm³) was 0. For the same compound, the Tumor volume ([3]; day 8) was 50.29 and 0 (2×) and 44.4222 and 26.1593 and 17.7985 and 33.6927 and 34.1731, the Tumor volume ([3]; day 11, in mm³) was 57.5494 and 54.0642 and 29.9608 and 34.453 and 70.3613 and 12.6567 and 13.356 and 62.0802 and the Tumor volume ([3]; day 13, in mm³) was 71.0807 and 75.9644 and 34.9942 and 17.4964 and 64.0599 and 59.7475 and 31.61 and 81.1976. The Tumor volume ([3]; day 15, in mm³) was 260.999 and 204.675 and 90.5639 and 88.4341 and 135.48 and 171.734 and 101.038 and 206.002, the Tumor volume ([3]; day 18, in mm³) was 480.691 and 730.912 and 126.029 and 148.778 and 375.191 and 457.823 and 357.768 and 468.956 and the Tumor volume ([3]; day 20, in mm³) was 765.508 and 824.168 and 527.843 and 397.65 and 611.294 and 688.039 and 576.047 and 641.268. For the same compound, the “Relative H3Ac/H3 total levels” value ([3]; after in vivo treatment, subcutaneous ML-2 mouse model, western blot, individual tumors) was 1.215 and 1.184 and 2.112 and 1.745 and 1.414 and 2.588, the “body weight of mice” value ([3]; day 4, in g (unit assumed)) was 25.5 and 22.7 and 24.1 and 24.4 and 23.6 and 21.4 and 26.1 and 23.7 and the “body weight of mice” value ([3]; day 6, in g (unit assumed)) was 24.2 and 22.1 and 23.5 and 23 and 22.4 and 20.6 and 24.7 and 22.8. For the same compound, the “body weight of mice” value ([3]; day 8) was 23 and 21.7 (2×) and 22.6 and 22.9 and 19.8 and 23.2 and 21.8, the “body weight of mice” value ([3]; day 11, in g (unit assumed)) was 25 and 22 and 24 and 24.2 and 22.6 and 21.1 and 24.3 and 21.9 and the “body weight of mice” value ([3]; day 13, in g (unit assumed)) was 24.5 and 21.9 and 23.2 and 22.6 and 22.9 and 21.2 and 24.7 and 22.3. For the same compound, the “body weight of mice” value ([3]; day 15) was 24.9 and 22.5 and 22.9 and 22.2 (2×) and 21.3 and 24.8 and 22.1, the “body weight of mice” value ([3]; day 18, in g (unit assumed)) was 24.7 and 23.2 and 23.6 and 22 and 23 and 21.6 and 24.9 and 23.5 and the “body weight of mice” value ([3]; day 20) was 24.4 and 23.5 and 23.1 (2×) and 20.8 and 21.2 and 25.5 and 23.3. The “CD11b expression from tumors measured by q-PCR” value ([3]; tumors of the subcutaneous ML-2 model, individual tumors (Fig 3C)) was 4.258 log10 (2-ΔΔCt) and 6.115 log10 (2-ΔΔCt) and 1.258 log10 (2-ΔΔCt) and 2.581 log10 (2-ΔΔCt) and 3.258 log10 (2-ΔΔCt).
